Laboratory results: patent publication US20230265104A1, “NOVEL HETEROCYCLIC COMPOUNDS” (PRISM BIOLAB CO., LTD., priority 2020, published 2023)

Tested on: PANC-1 (human pancreatic cancer-derived cell line)
Assay: MTS assay on Panc-1 (human pancreas carcinoma cell line)
Format: cell-based
Conditions: 144 h; for inhibition at 10 µM / inhibition at 1 µM: PANC-1, MTS, 6 days; for inhibition at 10 µM: read-out: Growth inhibition (%) 10 μM; for IC50: PANC-1, MTS method, cell survival 6 days after exposure, 4-parameter logistic fit; for inhibition at 1 µM: read-out: Growth inhibition (%) 1 μM
Protocol: Experimental Example: MTS Assay on Panc-1 (Human Pancreas Carcinoma Cell Line) cell line name: PANC-1 derived from: human pancreas glandular cancer purchased from: ATCC product code: CRL-1469 proliferation medium: D-MEM+10% FBS culture environment: 37° C., 5% CO2 seeding density: 5.0×10^5 cells/25 cm^2 solvent control substance: DMSO (HYBRI-MAX®, Sigma-Aldrich Corp.) test substance: Example compound (ID-1-ID-13) A DMSO solution of the test substance was prepared by serially diluting (common ratio 2) each test substance with DMSO.
A solvent control substance sample and a test substance sample were exposed to a human pancreatic cancer-derived cell line (PANC-1), and the survival rate of the cell 6 days later was measured by the MTS method. The measurement was performed 3 times and the average thereof was adopted. The survival rate of the cell in each test substance sample was calculated by the following formula 1 with the value at exposure of the solvent control substance sample as 100% survival rate. […]
survival rate (%)=100×absorbance of each test substance sample/absorbance of solvent control substance sample formula 1 Normalized values calculated by the following formula 2 from the absorbances of each sample at 492 nm and 630 nm and the absorbances of the blank were used as the absorbances in the above-mentioned formula 1. […]
normalized value (ABS492 nm-630 nm)=(ABSsa 492 nm-ABSsa 630 nm)−(ABSbl 492 nm-ABSbl 630 nm) ABSsa 492: absorbance of each sample at wavelength 492 nm ABSsa 630: absorbance of each sample at wavelength 630 nm ABSbl 492: absorbance of blank corresponding to each sample at wavelength 492 nm ABSbl 630: absorbance of blank corresponding to each sample at wavelength 630 nm formula 2 […]
The analysis was performed by using nplr package on R (The R Foundation for Statistical Computing) and estimating the logistic regression curve (4-parameter).

Row | SMILES | inhibition at 10 µM | IC50 | inhibition at 1 µM
1 | CC(C)C[C@H]1ON(C(=O)/C=C/[C@@H]2CCCN2C)[C@H]2CN(CCC(N)=O)C(=O)[C@H](CC(C)C)N2C1=O [ID-42, 3-((3R,6S,9aS)-3,6-diisobutyl-1-((E)-3-((S)-1-methylpyrrolidin-2-yl)acryloyl)-4,7-dioxohexahydropyrazino[2,1-c][1,2,4]oxadiazin-8(1H)-yl)propanamide] | 65.3% |  | 
2 | CC(C)C[C@H]1ON(C(=O)/C=C/[C@H]2CCCN2C)[C@H]2CN(CCC(N)=O)C(=O)[C@H](CC(C)C)N2C1=O [ID-43, 3-((3R,6S,9aS)-3,6-diisobutyl-1-((E)-3-((R)-1-methylpyrrolidin-2-yl)acryloyl)-4,7-dioxohexahydropyrazino[2,1-c][1,2,4]oxadiazin-8 (1H)-yl)propanamide] | 78.5% | 9400 nM | 
3 | CC(C)C[C@H]1ON(C(=O)/C=C/c2ccnn2C)[C@H]2CN(C3CCN(C)CC3)C(=O)[C@H](CC(C)C)N2C1=O [ID-44, (3R,6S,9aS)-3,6-diisobutyl-1-((E)-3-(1-methyl-1H-pyrazol-5-yl)acryloyl)-8-(1-methylpiperidin-4-yl)tetrahydropyrazino[2,1-c][1,2,4]oxadiazine-4,7(3H,6H)-dione] | 94.7% |  | 
4 | CC(=O)N1CCC(N2C[C@@H]3N(C(=O)/C=C/c4nc5ccccc5s4)O[C@H](CC(C)C)C(=O)N3[C@@H](CC(C)C)C2=O)CC1 [ID-45, (3R,6S,9aS)-8-(1-acetylpiperidin-4-yl)-1-((E)-3-(benzo[d]thiazol-2-yl)acryloyl)-3,6-diisobutyltetrahydropyrazino[2,1-c][1,2,4]oxadiazine-4,7(3H,6H)-dione] | 101% | 810 nM | 
5 | CC(C)C[C@H]1ON(C(=O)/C=C/c2nc3ccccc3o2)[C@H]2CN(C3CCN(C)CC3)C(=O)[C@H](CC(C)C)N2C1=O [ID-46, (3R, 6S, 9aS)-1-((E)-3-(benzo[d]oxazol-2-yl)acryloyl)-3,6-diisobutyl-8-(1-methylpiperidin-4-yl)tetrahydropyrazino[2,1-c][1,2,4]oxadiazine-4,7(3H,6H)-dione] | 99.1% | 1400 nM | 
6 | CC(C)C[C@H]1ON(C(=O)/C(Cl)=C/c2ccccn2)[C@H]2CN(C3CCN(C)CC3)C(=O)[C@H](CC(C)C)N2C1=O [ID-47, (3R,6S,9aS)-1-((Z)-2-chloro-3-(pyridin-2-yl)acryloyl)-3,6-diisobutyl-8-(1-methylpiperidin-4-yl)tetrahydropyrazino[2,1-c][1,2,4]oxadiazine-4,7(3H,6H)-dione] | 66.6% | 10000 nM | 
7 | CC(C)C[C@H]1ON(C(=O)/C=C/c2cc(C#N)ccn2)[C@H]2CN(C3CCN(C)CC3)C(=O)[C@H](CC(C)C)N2C1=O [ID-48, 2-((E)-3-((3R,6S,9aS)-3,6-diisobutyl-8-(1-methylpiperidin-4-yl)-4,7-dioxohexahydropyrazino[2,1-c][1,2,4]oxadiazin-1(6H)-yl)-3-oxoprop-1-en-1-yl)isonicotinonitrile] | 100% | 580 nM | 
8 | CC(C)C[C@H]1ON(C(=O)/C=C/c2cc3n(n2)CCOC3)[C@H]2CN(C3CCN(C)CC3)C(=O)[C@H](CC(C)C)N2C1=O [ID-49, (3R,6S,9aS)-1-((E)-3-(6,7-dihydro-4H-pyrazolo[5,1-c][1,4]oxazin-2-yl)acryloyl)-3,6-diisobutyl-8-(1-methylpiperidin-4-yl)tetrahydropyrazino[2,1-c][1,2,4]oxadiazine-4,7 (3H, 6H)-dione] | 74.9% |  | 
9 | CC(C)C[C@H]1ON(C(=O)/C=C/c2nc3ccccc3s2)[C@H]2CN(C3CCN(C(=O)c4ncc(F)cn4)CC3)C(=O)[C@H](CC(C)C)N2C1=O [ID-50, (3R,6S,9aS)-1-((E)-3-(benzo[d]thiazol-2-yl)acryloyl)-8-(1-(5-fluoropyrimidine-2-carbonyl)piperidin-4-yl)-3,6-diisobutyltetrahydropyrazino[2,1-c][1,2,4]oxadiazine-4,7(3H,6H)-dione] | 101% | 590 nM | 
10 | CC(C)C[C@H]1ON(C(=O)/C=C/c2cccc(=O)[nH]2)[C@H]2CN(C3CCN(C)CC3)C(=O)[C@H](CC(C)C)N2C1=O [ID-51, (3R,6S,9aS)-3,6-diisobutyl-8-(1-methylpiperidin-4-yl)-1-((E)-3-(6-oxo-1,6-dihydropyridin-2-yl)acryloyl)tetrahydropyrazino[2,1-c][1,2,4]oxadiazine-4,7(3H,6H)-dione] | 47.5% |  | 
11 | CC(C)C[C@H]1ON(C(=O)/C=C/c2nc3cc(F)ccc3s2)[C@H]2CN(C3CCN(C)CC3)C(=O)[C@H](CC(C)C)N2C1=O [ID-52, (3R,6S,9aS)-1-((E)-3-(5-fluorobenzo[d]thiazol-2-yl)acryloyl)-3,6-diisobutyl-8-(1-methylpiperidin-4-yl)tetrahydropyrazino[2,1-c][1,2,4.]oxadiazine-4,7(3H,6H)-dione] | 101% | 480 nM | 
12 | CC(C)C[C@H]1ON(C(=O)/C=C/c2ncco2)[C@H]2CN(C3CCN(C)CC3)C(=O)[C@H](CC(C)C)N2C1=O [ID-53, (3R,6S,9aS)-3,6-diisobutyl-8-(1-methylpiperidin-4-yl)-1-((E)-3-(oxazol-2-yl)acryloyl)tetrahydropyrazino[2,1-c] [1,2,4]oxadiazine-4,7(3H,6H)-dione] | 100% | 1200 nM | 
13 | CC(C)C[C@H]1ON(C(=O)/C=C/c2cscn2)[C@H]2CN(C3CCN(C)CC3)C(=O)[C@H](CC(C)C)N2C1=O [ID-54, (3R,6S,9aS)-3,6-diisobutyl-8-(1-methylpiperidin-4-yl)-1-((E)-3-(thiazol-4-yl)acryloyl)tetrahydropyrazino[2,1-c] [1,2,4]oxadiazine-4,7(3H,6H)-dione] | 57% |  | 
14 | CC(C)C[C@H]1ON(C(=O)/C=C/c2ncc(Cl)cn2)[C@H]2CN(C3CCN(C)CC3)C(=O)[C@H](CC(C)C)N2C1=O [ID-55, (3R,6S,9aS)-1-((E)-3-(5-chloropyrimidin-2-yl)acryloyl)-3,6-diisobutyl-8-(1-methylpiperidin-4-yl)tetrahydropyrazino[2,1-c][1,2,4]oxadiazine-4,7(3H,6H)-dione] | 99.8% | 460 nM | 
15 | CC(C)C[C@H]1ON(C(=O)/C=C/c2csc(N3CCOCC3)n2)[C@H]2CN(C3CCN(C)CC3)C(=O)[C@H](CC(C)C)N2C1=O [ID-56, (3R,6S,9aS)-3,6-diisobutyl-8-(1-methylpiperidin-4-yl)-1-((E)-3-(2-morpholinothiazol-4-yl)acryloyl)tetrahydropyrazino[2,1-c][1,2,4]oxadiazine-4,7 (3H, 6H)-dione] | 95.3% |  | 
16 | CC(C)C[C@H]1ON(C(=O)/C=C/c2ccccn2)[C@H]2CN(C3CCN(C)CC3)C(=O)[C@H](CCCCNCc3ccccc3)N2C1=O [ID-57, (3R,6S,9aS)-6-(4-(benzylamino)butyl)-3-isobutyl-8-(1-methylpiperidin-4-yl)-1-((E)-3-(pyridin-2-yl)acryloyl)tetrahydropyrazino[2,1-c][1,2,4]oxadiazine-4,7(3H,6H)-dione] | 101% | 1000 nM | 
17 | CC(C)C[C@H]1C(=O)N(C2CCN(C)CC2)C[C@@H]2N(C(=O)/C=C/c3nc4ccccc4s3)c3ccccc3C(=O)N21 [ID-58, (4S,11aS)-11-((E)-3-(benzo[d]thiazol-2-yl)acryloyl)-4-isobutyl-2-(1-methylpiperidin-4-yl)-1,2,11,11a-tetrahydro-6H-pyrazino[2,1-b]quinazoline-3,6(4H)-dione] |  | 560 nM | 78.4%
18 | CN1CCC(N2C[C@@H]3N(C(=O)/C=C/c4nc5ccccc5s4)c4ccc(F)cc4C(=O)N3[C@@H](CCCCN(C)C3CCN(C(=O)OC(C)(C)C)CC3)C2=O)CC1 [ID-59, tert-butyl 4-((4-((4S,11aS)-11-((E)-3-(benzo[d]thiazol-2-yl)acryloyl)-8-fluoro-2-(1-methylpiperidin-4-yl)-3,6-dioxo-1,3,4,6,11,11a-hexahydro-2H-pyrazino[2,1-b]quinazolin-4-yl)butyl) (methyl)amino)piperidine-1-carboxylate] |  | 550 nM | 98.8%
19 | CSCC[C@H]1C(=O)N(C2CCN(C)CC2)C[C@@H]2N(C(=O)/C=C/c3nc4ccccc4s3)O[C@H](CC(C)C)C(=O)N21 [ID-60, (3R,6S,9aS)-1-((E)-3-(benzo[d]thiazol-2-yl)acryloyl)-3-isobutyl-8-(1-methylpiperidin-4-yl)-6-(2-(methylthio)ethyl)tetrahydropyrazino[2,1-c][1,2,4]oxadiazine-4,7(3H,6H)-dione] | 93.7% | 270 nM | 
20 | CC(C)C[C@H]1ON(C(=O)/C=C/c2ccccn2)[C@H]2CN(C3CCN(C)CC3)C(=O)[C@H](Cc3ccc(O)cc3)N2C1=O [ID-61, (3R,6S,9aS)-6-(4-hydroxybenzyl)-3-isobutyl-8-(1-methylpiperidin-4-yl)-1-((E)-3-(pyridin-2-yl)acryloyl)tetrahydropyrazino[2,1-c][1,2,4]oxadiazine-4,7(3H,6H)-dione] |  | 7300 nM | 
